Data reported in US20080171783A1, “COMPOSITIONS AND METHODS FOR TREATING HYPERPROLIFERATIVE DISEASE” (Migenix Inc., priority 2006, published 2008).

Assays:
[1] = target: T1, Calf polymerase alpha (Bos taurus, UniProt A0AAA9TD94); assay: Calf polymerase alpha inhibition (Replizyme kit); format: biochemical; details: for IC50: dose response; for inhibition at 10 µM: single point screening
T1 construct: purchased Replizyme Ltd (Heslington, York, UK)
T1 sequence (A0AAA9TD94 1-1441): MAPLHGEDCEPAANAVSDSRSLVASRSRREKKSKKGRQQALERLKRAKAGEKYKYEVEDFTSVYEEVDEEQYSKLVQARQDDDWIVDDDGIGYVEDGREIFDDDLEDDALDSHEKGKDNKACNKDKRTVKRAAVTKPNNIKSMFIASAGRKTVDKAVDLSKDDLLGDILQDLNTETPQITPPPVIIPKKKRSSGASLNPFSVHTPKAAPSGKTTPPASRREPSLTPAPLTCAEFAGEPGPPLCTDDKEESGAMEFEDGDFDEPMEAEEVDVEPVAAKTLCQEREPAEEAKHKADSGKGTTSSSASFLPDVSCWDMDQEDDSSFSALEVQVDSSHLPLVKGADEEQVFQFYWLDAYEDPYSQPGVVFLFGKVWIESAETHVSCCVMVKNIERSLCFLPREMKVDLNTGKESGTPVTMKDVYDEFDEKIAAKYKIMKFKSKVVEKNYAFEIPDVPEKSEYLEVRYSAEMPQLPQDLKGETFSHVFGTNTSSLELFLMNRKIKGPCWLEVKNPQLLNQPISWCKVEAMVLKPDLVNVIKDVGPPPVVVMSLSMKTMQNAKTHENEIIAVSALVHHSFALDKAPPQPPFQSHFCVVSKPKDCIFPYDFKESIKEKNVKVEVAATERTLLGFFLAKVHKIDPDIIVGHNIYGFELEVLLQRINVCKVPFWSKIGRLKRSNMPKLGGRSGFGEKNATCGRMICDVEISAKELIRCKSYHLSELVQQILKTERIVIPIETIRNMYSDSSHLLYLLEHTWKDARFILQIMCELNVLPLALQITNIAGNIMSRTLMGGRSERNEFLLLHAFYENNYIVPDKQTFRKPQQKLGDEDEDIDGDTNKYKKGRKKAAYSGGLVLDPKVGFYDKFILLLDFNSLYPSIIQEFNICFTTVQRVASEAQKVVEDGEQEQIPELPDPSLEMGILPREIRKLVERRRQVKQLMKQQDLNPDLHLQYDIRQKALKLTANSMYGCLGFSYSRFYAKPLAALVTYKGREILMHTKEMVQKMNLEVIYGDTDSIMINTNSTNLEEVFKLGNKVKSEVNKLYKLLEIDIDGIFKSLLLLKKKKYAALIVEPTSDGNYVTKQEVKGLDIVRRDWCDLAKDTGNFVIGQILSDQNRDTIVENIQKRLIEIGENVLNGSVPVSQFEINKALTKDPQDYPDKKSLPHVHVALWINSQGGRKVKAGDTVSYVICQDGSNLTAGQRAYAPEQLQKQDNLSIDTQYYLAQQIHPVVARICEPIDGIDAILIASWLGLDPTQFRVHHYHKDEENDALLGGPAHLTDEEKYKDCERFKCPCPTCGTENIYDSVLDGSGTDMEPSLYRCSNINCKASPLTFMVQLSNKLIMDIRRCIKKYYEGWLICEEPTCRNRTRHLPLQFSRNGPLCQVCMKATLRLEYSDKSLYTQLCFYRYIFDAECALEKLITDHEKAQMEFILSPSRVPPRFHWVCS
Protocol: Calf polymerase alpha and human polymerase alpha investigations were performed with a kit available from Replizyme Ltd (Heslington, York, UK).

[2] = Cytotoxicity Huh-7 cells (MTS/PMS); format: cell-based; details: human, 3-day incubation
Protocol: Cytotoxicity of compounds for use in treating hyperproliferative diseases or disorders was tested in Huh-7 cells using tetrazolium salt MTS combined with the electron acceptor PMS in a 96-well format. Six doses of each compound was tested, starting at about 1.2 μM to 0.4 μM serially diluted in a final 1% DMSO solution in DMEM/F12 media. Terfenadine was used as a positive control. Cells were seeded at 2.5×10^5 cells/mL in each well of the 96-well plates in a final volume of 0.1 mL, and then incubated at 37° C. in the presence of 5% CO2 overnight. Compounds (in media) were added the following day and the treated cells were incubated another 3-days at 37° C. in the presence of 5% CO2. After the 3-day incubation, 20 μL of MTS/PMS (3-(4,5-dimethylthiazol-2-yl)-5-(3-carboxymethoxy-phenyl)-2-(4-sulfophenyl)-2H-tetrazolium) was added to each well. After about a one to four hour incubation of MTS/PMS at 37° C. and 5% CO2—that is, until an OD490 absorbance of ≧0.6 for the wells containing cells with media only, the level of cytotoxicity at each concentration was calculated. […] Dose response results from the cytotoxicity assay (CC50) are provided in Table 4 in comparison with IC50 data (from Table 2)

[3] = test system: UO-31; assay: NCI In Vitro Cell Line Screening (SRB); format: cell-based, human; details: UO-31, Renal Cancer, 48 h; for GI50 / CC50: Homo sapiens; for CC50: read-out: LC50 (the source's name)
[4] = test system: 786-0; assay: NCI In Vitro Cell Line Screening (SRB); format: cell-based, human; details: 786-0, Renal Cancer, 48 h; for GI50 / CC50: Homo sapiens; for CC50: read-out: LC50 (the source's name)
[5] = test system: SK-OV-3; assay: NCI In Vitro Cell Line Screening (SRB); format: cell-based, human; details: SK-OV-3, Ovarian Cancer, 48 h; for GI50 / CC50: Homo sapiens; for CC50: read-out: LC50 (the source's name)
[6] = test system: NCI-H322M; assay: NCI In Vitro Cell Line Screening (SRB); format: cell-based, human; details: Non-Small Cell Lung Cancer, 48 h; for GI50 / CC50: Homo sapiens; for CC50: read-out: LC50 (the source's name)
[7] = test system: K-562; assay: NCI In Vitro Cell Line Screening (SRB); format: cell-based; details: K-562, Leukemia, 48 h
[8] = test system: U251; assay: NCI In Vitro Cell Line Screening (SRB); format: cell-based, human; details: U251, CNS Cancer, 48 h; for GI50 / CC50: Homo sapiens, U-251; for CC50: read-out: LC50 (the source's name)
[9] = test system: RPMI-8226; assay: NCI In Vitro Cell Line Screening (SRB); format: cell-based, human; details: RPMI-8226, Leukemia, 48 h
[10] = test system: SF-539; assay: NCI In Vitro Cell Line Screening (SRB); format: cell-based, human; details: SF-539, CNS Cancer, 48 h; for GI50 / CC50: Homo sapiens; for CC50: read-out: LC50 (the source's name)
[11] = test system: HT29; assay: NCI In Vitro Cell Line Screening (SRB); format: cell-based; details: HT29, Colon Cancer, 48 h; for GI50 / CC50: Homo sapiens, HT-29; for CC50: read-out: LC50 (the source's name)

SMILES | IC50 [1] | CC50 at 3 days [2] | GI50 [3] | CC50 [3] | TGI [3] | inhibition at 10 µM [1] | TGI [4] | GI50 [4] | CC50 [4] | GI50 [5] | CC50 [5] | TGI [5] | GI50 [6] | CC50 [6] | TGI [6] | GI50 ([7]; Homo sapiens, K562) | GI50 [8] | CC50 [8] | TGI [8] | GI50 ([9]; Homo sapiens) | also measured
Cc1ccc(NC(=O)[C@H](CCCCN)NC(=O)Nc2ccc(OCc3ccccc3)cc2)cc1 [Compound 2, (S)-6-AMINO-2-[3-(4-BENZYLOXY-PHENYL)-UREIDO]-HEXANOIC ACID P-TOLYLAMIDE] | 13 µM | 22.2 µM | – | – | – | – | – | – | – | – | – | – | – | – | – | – | – | – | – | – | –
CC(C)(C)c1ccc(NC(=O)[C@H](CCCCN)NC(=O)OCC2c3ccccc3-c3ccccc32)cc1 [Compound 105, (S)-[5-AMINO-1-(4-TERT-BUTYL-PHENYLCARBAMOYL)-PENTYL]-CARBAMIC ACID 9H-FLUOREN-9-YLMETHYL ESTER] | – | – | 1.58 µM | 6.76 µM | 3.27 µM | 100% | 2.66 µM | 1.33 µM | 5.3 µM | 1.85 µM | 5.99 µM | 3.33 µM | 13.5 µM | 69.9 µM | 30.7 µM | 1.39 µM | 4.74 µM | 48.3 µM | 17.3 µM | 1.71 µM | TGI [7]: 3.32 µM; TGI [9]: 3.78 µM; GI50 [10]: 1.48 µM; CC50 [10]: 5.63 µM; TGI [10]: 2.89 µM; GI50 [11]: 0.733 µM; CC50 [11]: > 100 µM
Cc1ccc(NC(=O)[C@@H](CCCCN)NC(=O)Nc2ccc3c(c2)Cc2ccccc2-3)cc1 [Compound 173, (R)-6-AMINO-2-[3-(9H-FLUOREN-2-YL)-UREIDO]-HEXANOIC ACID P-TOLYLAMIDE] | – | – | > 100 µM | > 100 µM | >100 µM | 99% | 11.1 µM | 3.42 µM | 91.1 µM | 1.61 µM | 5.88 µM | 3.08 µM | 2.54 µM | 39.8 µM | 12.0 µM | 1.67 µM | 1.49 µM | 5.3 µM | 2.80 µM | 1.59 µM | CC50 ([7]; Homo sapiens, K562, read-out: LC50 (the source's name)): > 100 µM; CC50 ([9]; Homo sapiens, read-out: LC50 (the source's name)): > 100 µM; TGI [9]: 4.87 µM; GI50 [10]: 1.92 µM; CC50 [10]: 11.9 µM; TGI [10]: 4.48 µM; TGI [11]: >100 µM; GI50 [11]: 3.64 µM; CC50 [11]: > 100 µM
COC(=O)c1ccc(COc2ccc(NC(=O)N[C@@H](CCCCN)C(=O)Nc3ccc(C)cc3)cc2)cc1 [Compound 199, (S)-4-{4-[3-(5-AMINO-1-P-TOLYLCARBAMOYL-PENTYL)-UREIDO]-PHENOXYMETHYL}-BENZOIC ACID METHYL ESTER] | 7.9 µM | 53 µM | – | – | – | 39.7% | – | – | – | – | – | – | – | – | – | – | – | – | – | – | –
Cc1cc2cc(NC(=O)[C@H](CCCNC(=O)CN)NC(=O)Nc3ccc4c(c3)Cc3ccccc3-4)ccc2[nH]1 [Compound 297, (S)-5-(2-AMINO-ACETYLAMINO)-2-[3-(9H-FLUOREN-2-YL)-UREIDO]-PENTANOIC ACID (2-METHYL-1H-INDOL-5-YL)-AMIDE] | 26 µM | 9.9 µM | – | – | – | 16.5% | – | – | – | – | – | – | – | – | – | – | – | – | – | – | –
